# Reference: patent US20060194815A1, “Methods and compositions for modulating serum cortisol levels” (priority 2003, published 2006)
# Columns and labels:
# [1] = test system: H295R human adrenal tumor cells; assay: MTT cell viability / mitochondrial function, H295R cells; assay type: cell-based; conditions: H295R cells exposed to dbcAMP
# Protocol: Cell viability at the end of the incubation protocol described above was assessed using the mitochondrial integrity 3-(4,5-dimethylthiazol-2-yl)-2,5-diphenyl tetrazolium bromide (MTT) assay (Trevigen, Gaithersburg, Md.). Briefly, 10 l of the MTT solution were added to the cells in 100 l medium. After an incubation period of 4 hours, 100 l of detergent were added and cells were incubated overnight at 37° C. Formazan blue formation was quantified at 600 nm and 690 nm using the Victor quantitative detection spectrophotometer (EGG-Wallac, Gaithersburg, Md.) and the results expressed as (OD600-OD690).
# P-450SCC enzyme = assay: Immunoblot of P-450SCC enzyme expression in Y1 cells; assay type: cell-based, mouse; conditions: Y1 cell extracts
# Protocol: (§1) At the end of the treatment protocol described above, Y1 cells at 90% confluency were washed 2 times with PBS, sonicated 15 seconds in extraction buffer and centrifuged at 18,500 g for 15 minutes at 4° C. Pellets were resuspended in ice-cold lysis buffer (1% Nonidet 40 in extraction buffer), sonicated briefly, and incubated on ice for 1 hour. After centrifugation (22,500 g×30 min, 4° C.), the supernatant was mixed in sample buffer 6× (0.27 M SDS, 0.6 M dithiothreitol, 0.18 M bromphenol blue in 7 ml of 0.5 M Tris-HCl, pH 6.8, and 3 ml glycerol) and boiled for 5 minutes. Proteins were subjected to SDS-PAGE (4-20% gradient SDS polyacrylamide gel) and electrophoretically transferred onto nitrocellulose membranes. The transblot sheets were blocked with 5% non fat dry milk in 25 mM Tris HCl, pH 7.5, 150 mM NaCl, and 0.1% Tween 20 overnight at 4° C. Membranes were then incubated with appropriately diluted primary antibodies 1:800 for anti-P-450SCC (Research Diagnostics Inc. Flanders, N.J.) and 1:200 for anti-StAR (Amri et al., 1996), and the reaction was detected by a peroxidase-conjugated secondary antibody (Santa Cruz Biotechnology, Santa Cruz, Calif.) and enhanced chemiluminescence (Amersham Life, Arlington Heights, Ill.). The densities of the appropriate bands were determined using the OptiQuant Acquisition & Analysis software (Packard BioScience).
# [2] = test system: steroidogenesis acute regulatory protein (StAR); assay: Immunoblot of StAR protein levels in Y1 cells; assay type: cell-based, mouse; conditions: 1 μM procaine, 48 hour treatment, 3 hour dbcAMP
# Protocol: as §1
# HMG-CoA reductase mRNA = HMG-CoA reductase mRNA expression by Q-PCR in UT-1 cells; assay type: cell-based, Chinese hamster; conditions: dbcAMP induced
# Protocol: After treatment, cells were stimulated with 1 mM dbcAMP for 24 hours. At the end of the incubation, total cell RNA was extracted using. RNA STAT-60 (Tel-Test Inc, Friendswood, Tex.) according to the manufacturer's instructions. HMG-CoA reductase mRNA was quantified by Q-PCR using the ABI Prism 7700 sequence detection system (Perlin-Elmer/Applied Biosystems, Foster City, Calif.). RT reaction was performed using TaqMan® Reverse Transcription Reagents with 1 g total RNA and random hexamers as primers for each reaction according to the manufacturer's instructions. For quantifying mouse HMG-CoA reductase mRNA with Q-PCR, the primers were designed according to GenBank Accession Number BC 019782 using PE/AB Primer Express software, which is specifically designed for the selection of primers and probes. The forward primer was 5′-[…]-3′ (22 nucleotides) and reverse primer was 5′-[…]-3′ (23 nucleotides), respectively. The primers were synthesized by Bio-Synthesis Inc. (Lewisville, Tex.). Reactions were performed in a reaction mixture consisting of a 20 l volume solution containing 10 l SYBR® Green PCR Master Mix and 1 l primers mix (5 M each) with 2 l cDNA.
smiles,measurement,setting,value
CCN(CC)CCOC(=O)c1ccc(N)cc1 [procaine],dbcAMP-induced change of mitochondrial function (MTT),[1],reversed the effect of dbcAMP on mitochondrial function
same,dbcAMP-induced change of mitochondrial function (MTT),[1]; listed as Procaine,protected against the dbc-AMP-induced change of mitochondrial function
same,expression of the P-450SCC enzyme (immunoblot),P-450SCC enzyme,did not modify
same,levels of the mature 30 kDa StAR protein,[2],did not affect
same,levels of the mature 30 kDa StAR protein,[2]; listed as Procaine,had no effect
same,inhibition of HMG-CoA reductase mRNA expression,HMG-CoA reductase mRNA,minor and not significant
